Assay results published in PubChem BioAssay (NCI).
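Cultured in 96-well plates, cells were exposed to test compound for 48 hours across five concentrations. GI50: concentration for 50% inhibition of growth. TGI is the concentration that stops growth completely.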

Key:
Experiment in all cases: inhibition of tumour cell growth, NCI panel, 48 h
[1] = system: HL-60(TB) leukemia
[2] = system: UO-31 renal
[3] = system: LOX IMVI melanoma
[4] = system: SK-MEL-28 melanoma
[5] = system: HCC-2998 colon
[6] = system: UACC-62 melanoma
[7] = system: NCI-H23 lung
[8] = system: OVCAR-5 ovarian
[9] = system: 786-0 renal
[10] = system: MDA-MB-231 breast

Row | SMILES | GI50 [1] [µM] | TGI [1] [µM] | GI50 [2] [µM] | TGI [2] [µM] | GI50 [3] [µM] | TGI [3] [µM] | GI50 [4] [µM] | TGI [4] [µM] | GI50 [5] [µM] | TGI [5] [µM] | GI50 [6] [µM] | TGI [6] [µM] | GI50 [7] [µM] | TGI [7] [µM] | GI50 [8] [µM] | TGI [8] [µM] | GI50 [9] [µM] | TGI [9] [µM] | GI50 [10] [µM] | TGI [10] [µM]
1 | CCN1CCC(CC(=O)Nc2n[nH]c3nc(-c4cccs4)c(Br)cc23)CC1 | 7.31 | 14.8 | 9.05 | > 25 | 5.11 | 14.1 | 5.31 | 9.85 | 12 | > 25 | 5.26 | 11 | 20.1 | > 25 | 15.9 | > 25 | 10.7 | > 25 | 14.7 | > 25
2 | CC1(C)N[P+]2(Nc3ccccc3O2)OC1=O (stereo not given) | – | > 100 | – | > 100 | – | > 100 | – | > 100 | – | > 100 | – | 64 | – | > 100 | – | > 100 | – | > 100 | – | > 100
